# Measurements from patent publication US10703760B2, “Morphic forms of marizomib and uses thereof” (Celgene International II Sàrl, priority 2016, dated 2020).
# How the values were obtained:
# [1] = Approximate solubility of Sample 4 by solvent aliquot addition, visual inspection; post-solubility storage; assay type: physicochemical; settings: for solubility: thermodynamic from solid
# Protocol: Weighed samples of MRZ, Sample 4 were treated with aliquots of the test solvents or solvent mixtures at ambient temperature. Complete dissolution of the test material was determined by visual inspection. Solubility was estimated based on the total solvent volume used to provide complete dissolution. The actual solubility may be greater than the value calculated because of the use of solvent aliquots that were too large or due to a slow rate of dissolution. If complete dissolution was not achieved during the experiment, the solubility is expressed as “less than”. If complete dissolution was achieved by only one aliquot addition, the value is reported as “larger than”. As set forth in Table-9, the ratio of solvent mixtures are given by volume. Solubilities are estimated at ambient temperature and reported to the nearest mg/mL; if complete dissolution was not achieved, the value is reported as “<”; the actual solubility may be greater than the reported value due to the use of solvent aliquots that were too large or due to a slow rate of dissolution. Post-solubility samples were stored at 2-8° C. for 15-16 days followed by 1 day at ambient storage before visual inspection for precipitation. Post-solubility samples were visually inspected after 2-3 days of ambient storage. Formation system A is: 55% propylene glycol+5% ethanol+40% citrate buffer (10 mM; pH 5). Formation system B is: 14/86 (v/v) H2O/tert-butyl alcohol containing 30 mg/mL sucrose, and titrated with HCl to pH 3.2±0.2.
# [2] = Dynamic vapor sorption (DVS) of Sample 4; assay type: physicochemical
# From the text: Prior to any testing, Sample 4 was characterized by XRPD, TGA, DSC, 1HNMR, and DVS. The results are given below in Table-8. The Corresponding figure numbers are given in the right hand column.
smiles,measurement,setting,value
"C[C@@]12OC(=O)[C@]1([C@@H](O)[C@@H]1C=CCCC1)NC(=O)[C@@H]2CCCl [Sample 4, marizomib]",solubility,"[1]; aqueous with cosolvent or surfactant or cyclodextrin, Formulation System A (55% propylene glycol + 5% EtOH + 40% citrate buffer 10 mM pH 5), ambient temperature",< 1 mg/mL
same,solubility,"[1]; aqueous with cosolvent or surfactant or cyclodextrin, Formulation System B (14/86 v/v H2O/tBA, 30 mg/ml sucrose, pH 3.2), ambient temperature",6 mg/mL
same,solubility,"[1]; organic solvent or mixture, 1-propanol, ambient temperature",2 mg/mL
same,solubility,"[1]; organic solvent or mixture, 2,2,2-trifluoroethanol, ambient temperature",< 1 mg/mL
same,solubility,"[1]; organic solvent or mixture, 2-Me THF, ambient temperature",32 mg/mL
same,solubility,"[1]; organic solvent or mixture, 20:80 2-MeTHF/MeOAc (v/v), ambient temperature",34 mg/mL
same,solubility,"[1]; organic solvent or mixture, 20:80 CHCl3/DCM (v/v), ambient temperature",3 mg/mL
same,solubility,"[1]; organic solvent or mixture, 20:80 MEK/IPA (v/v), ambient temperature",10 mg/mL
same,solubility,"[1]; organic solvent or mixture, 20:80 MEK/MIBK (v/v), ambient temperature",12 mg/mL
same,solubility,"[1]; organic solvent or mixture, 20:80 NMP/1-propanol (v/v), ambient temperature",19 mg/mL
same,solubility,"[1]; organic solvent or mixture, 20:80 NMP/IPA (v/v), ambient temperature",19 mg/mL
same,solubility,"[1]; organic solvent or mixture, 20:80 THF/nitromethane (v/v), ambient temperature",15 mg/mL
same,solubility,"[1]; organic solvent or mixture, 25:75 ACN/MTBE (v/v), ambient temperature",10 mg/mL
same,solubility,"[1]; organic solvent or mixture, 25:75 DMF/anisole (v/v), ambient temperature",17 mg/mL
same,solubility,"[1]; organic solvent or mixture, 50:50 EtOAc/cyclohexane (v/v), ambient temperature",4 mg/mL
same,solubility,"[1]; organic solvent or mixture, 50:50 EtOAc/isooctane (v/v), ambient temperature",2 mg/mL
same,solubility,"[1]; organic solvent or mixture, 50:50 MeOH/Et2O (v/v), ambient temperature",21 mg/mL
same,solubility,"[1]; organic solvent or mixture, 50:50 THF/hexanes (v/v), ambient temperature",21 mg/mL
same,solubility,"[1]; organic solvent or mixture, 50:50 acetone/heptane (v/v), ambient temperature",12 mg/mL
same,solubility,"[1]; organic solvent or mixture, 50:50 acetone/iso-octane (v/v), ambient temperature",12 mg/mL
same,solubility,"[1]; organic solvent or mixture, ACN, ambient temperature",10 mg/mL
same,solubility,"[1]; organic solvent or mixture, CHCl3, ambient temperature",2 mg/mL
same,solubility,"[1]; organic solvent or mixture, DCM, ambient temperature",2 mg/mL
same,solubility,"[1]; organic solvent or mixture, DMSO, ambient temperature",> 83 mg/mL
same,solubility,"[1]; organic solvent or mixture, EtOAc, ambient temperature",15 mg/mL
same,solubility,"[1]; organic solvent or mixture, Formic acid, ambient temperature",15 mg/mL
same,solubility,"[1]; organic solvent or mixture, IPA, ambient temperature",6 mg/mL
same,solubility,"[1]; organic solvent or mixture, MEK, ambient temperature",33 mg/mL
same,solubility,"[1]; organic solvent or mixture, MIBK, ambient temperature",11 mg/mL
same,solubility,"[1]; organic solvent or mixture, MeOAc, ambient temperature",20 mg/mL
same,solubility,"[1]; organic solvent or mixture, NMP, ambient temperature",5 mg/mL
same,solubility,"[1]; organic solvent or mixture, THF, ambient temperature",49 mg/mL
same,solubility,"[1]; organic solvent or mixture, [EMIm][Cl], ambient temperature",< 2 mg/mL
same,solubility,"[1]; organic solvent or mixture, [EMIm][NTF2], ambient temperature",1 mg/mL
same,solubility,"[1]; organic solvent or mixture, acetic acid, ambient temperature",10 mg/mL
same,solubility,"[1]; organic solvent or mixture, acetone, ambient temperature",39 mg/mL
same,solubility,"[1]; organic solvent or mixture, anisole, ambient temperature",2 mg/mL
same,solubility,"[1]; organic solvent or mixture, cyclohexanone, ambient temperature",22 mg/mL
same,solubility,"[1]; organic solvent or mixture, dioxane, ambient temperature",20 mg/mL
same,solubility,"[1]; organic solvent or mixture, nitromethane, ambient temperature",2 mg/mL
same,solubility,"[1]; organic solvent or mixture, pyridine, ambient temperature",36 mg/mL
same,solubility,"[1]; organic solvent or mixture, tert-butanol, ambient temperature",3 mg/mL
same,Precipitates formed during storage?,[1]; post-solubility sample in 1-propanol,no
same,Precipitates formed during storage?,[1]; post-solubility sample in 2-Me THF,no
same,Precipitates formed during storage?,[1]; post-solubility sample in 20:80 2-MeTHF/MeOAc,no
same,Precipitates formed during storage?,[1]; post-solubility sample in 20:80 CHCl3/DCM,no
same,Precipitates formed during storage?,[1]; post-solubility sample in 20:80 MEK/IPA,no
same,Precipitates formed during storage?,[1]; post-solubility sample in 20:80 MEK/MIBK,no
same,Precipitates formed during storage?,[1]; post-solubility sample in 20:80 NMP/1-propanol,no
same,Precipitates formed during storage?,[1]; post-solubility sample in 20:80 NMP/IPA,no
same,Precipitates formed during storage?,[1]; post-solubility sample in 20:80 THF/nitromethane,no
same,Precipitates formed during storage?,[1]; post-solubility sample in 25:75 ACN/MTBE,no
same,Precipitates formed during storage?,[1]; post-solubility sample in 25:75 DMF/anisole,no
same,Precipitates formed during storage?,[1]; post-solubility sample in 50:50 EtOAc/cyclohexane,no
same,Precipitates formed during storage?,[1]; post-solubility sample in 50:50 EtOAc/isooctane,no
same,Precipitates formed during storage?,[1]; post-solubility sample in 50:50 MeOH/Et2O,no
same,Precipitates formed during storage?,[1]; post-solubility sample in 50:50 THF/hexanes,no
same,Precipitates formed during storage?,[1]; post-solubility sample in 50:50 acetone/heptane,no
same,Precipitates formed during storage?,[1]; post-solubility sample in 50:50 acetone/iso-octane,no
same,Precipitates formed during storage?,[1]; post-solubility sample in ACN,no
same,Precipitates formed during storage?,[1]; post-solubility sample in CHCl3,yes
same,Precipitates formed during storage?,[1]; post-solubility sample in DCM,no
same,Precipitates formed during storage?,[1]; post-solubility sample in DMSO,no
same,Precipitates formed during storage?,[1]; post-solubility sample in EtOAc,no
same,Precipitates formed during storage?,[1]; post-solubility sample in Formic acid,no
same,Precipitates formed during storage?,[1]; post-solubility sample in Formulation System B,no
same,Precipitates formed during storage?,[1]; post-solubility sample in IPA,no
same,Precipitates formed during storage?,[1]; post-solubility sample in MEK,yes (small amount)
same,Precipitates formed during storage?,[1]; post-solubility sample in MIBK,no
same,Precipitates formed during storage?,[1]; post-solubility sample in MeOAc,no
same,Precipitates formed during storage?,[1]; post-solubility sample in NMP,no
same,Precipitates formed during storage?,[1]; post-solubility sample in THF,no
same,Precipitates formed during storage?,[1]; post-solubility sample in acetic acid,no
same,Precipitates formed during storage?,[1]; post-solubility sample in acetone,no
same,Precipitates formed during storage?,[1]; post-solubility sample in anisole,no
same,Precipitates formed during storage?,[1]; post-solubility sample in cyclohexanone,no
same,Precipitates formed during storage?,[1]; post-solubility sample in dioxane,no
same,Precipitates formed during storage?,[1]; post-solubility sample in nitromethane,no
same,Precipitates formed during storage?,[1]; post-solubility sample in pyridine,no
same,Precipitates formed during storage?,[1]; post-solubility sample in tert-butanol,no
same,DVS weight change,[2]; 5-75% RH,+0.039 wt % (5-75% RH)
same,DVS weight change,[2]; 75-95% RH,+1.158 wt % (75-95% RH)
same,DVS weight change,[2]; 95-5% RH,−1.276 wt % (95-5% RH)
same,DVS weight change,[2]; at 5% RH,−0.035 wt % (at 5% RH)
